Reference: ChEMBL document CHEMBL1201862, “PubChem BioAssay data set” (2004)
Active and inactive are the calls of the source.

Tests used:
Large T antigen = Large T antigen (Simian virus 40, UniProt P03070); assay type: functional, Betapolyomavirus macacae;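 also: Confirmatory-stage PubChem screen for compounds that inhibit SV40 T antigen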
[1] = Luminescence Cell-Based Dose Retest to Confirm Inhibitors of Cancer Stem Cells. [Related pubchem assays (depositor defined):AID2717, AID2721]; assay type: functional; conditions: Homo sapiens
[2] = inhibitors of firefly luciferase expression or activity, dose response, H4 neuroglioma cells, luminescence (AID 1990); assay type: functional, cell-based
[3] = Luminescence Cell-Based Dose Response HTS to Identify Inhibitors of 5'UTR Stem-Loop Driven Prion Protein mRNA Translation in H4 Neuroglioblastoma Cells. [Related pubchem assays: 1827 (Project Summary), 1813 (Primary HTS)]; assay type: functional
[4] = inhibitors of SNCA 5'UTR-driven reporter translation, confirmation, H4 neuroglioma cells, luminescence (AID 1988); assay type: functional, cell-based
[5] = HEp-2 cell cytotoxicity, dose response, cytotoxicity control for RSV inhibitor project, HTS (AID 2410); assay type: functional; conditions: human respiratory syncytial virus
Protein skinhead-1 = biological target: T1, Protein skinhead-1 (Caenorhabditis elegans, UniProt P34707); assay type: functional
T1 sequence (P34707 whole entry): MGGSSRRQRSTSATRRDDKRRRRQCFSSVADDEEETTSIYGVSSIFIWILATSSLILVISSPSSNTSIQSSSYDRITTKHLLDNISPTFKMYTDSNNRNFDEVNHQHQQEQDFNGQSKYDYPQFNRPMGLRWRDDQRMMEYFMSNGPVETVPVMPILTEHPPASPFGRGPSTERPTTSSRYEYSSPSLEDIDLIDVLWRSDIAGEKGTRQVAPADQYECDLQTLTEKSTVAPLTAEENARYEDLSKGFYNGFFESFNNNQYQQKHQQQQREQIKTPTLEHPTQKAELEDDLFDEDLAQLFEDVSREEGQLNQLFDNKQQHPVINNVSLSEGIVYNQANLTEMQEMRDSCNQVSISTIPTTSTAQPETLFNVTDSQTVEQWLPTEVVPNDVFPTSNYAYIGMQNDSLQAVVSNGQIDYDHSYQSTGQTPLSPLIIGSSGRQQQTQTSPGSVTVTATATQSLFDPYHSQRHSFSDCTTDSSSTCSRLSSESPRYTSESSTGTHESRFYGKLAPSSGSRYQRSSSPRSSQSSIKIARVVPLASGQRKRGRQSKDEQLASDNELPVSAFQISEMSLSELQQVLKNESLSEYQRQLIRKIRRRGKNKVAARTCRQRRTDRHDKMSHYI

[6] = inhibitors of intracellular T. cruzi replication, confirmation, NIH3T3 host cells, beta-gal luminescence (AID 2044); assay type: functional, cell-based;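 also: intracellular parasites grown in NIH/3T3 mouse fibroblasts as host cells; luminescent beta-galactosidase reporter signal from transgenic T. cruzi replicating inside host cells; inhibitors lower the luminescence signal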
[7] = cytotoxicity toward NIH3T3 fibroblasts, dose response, counter-screen, cell-based, ATP luminescence, mouse fibroblasts (AID 2010); assay type: functional;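 also: cells exposed to compound for about 90 hours before reading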
[8] = biological target: T2, Replicative DNA helicase DnaB (Mycobacterium tuberculosis, UniProt P9WMR3); test: DnaB intein splicing inhibitors, dose response, biochemical, cell-free fluorescence (AID 449749); assay type: functional
T2 sequence (P9WMR3 whole entry): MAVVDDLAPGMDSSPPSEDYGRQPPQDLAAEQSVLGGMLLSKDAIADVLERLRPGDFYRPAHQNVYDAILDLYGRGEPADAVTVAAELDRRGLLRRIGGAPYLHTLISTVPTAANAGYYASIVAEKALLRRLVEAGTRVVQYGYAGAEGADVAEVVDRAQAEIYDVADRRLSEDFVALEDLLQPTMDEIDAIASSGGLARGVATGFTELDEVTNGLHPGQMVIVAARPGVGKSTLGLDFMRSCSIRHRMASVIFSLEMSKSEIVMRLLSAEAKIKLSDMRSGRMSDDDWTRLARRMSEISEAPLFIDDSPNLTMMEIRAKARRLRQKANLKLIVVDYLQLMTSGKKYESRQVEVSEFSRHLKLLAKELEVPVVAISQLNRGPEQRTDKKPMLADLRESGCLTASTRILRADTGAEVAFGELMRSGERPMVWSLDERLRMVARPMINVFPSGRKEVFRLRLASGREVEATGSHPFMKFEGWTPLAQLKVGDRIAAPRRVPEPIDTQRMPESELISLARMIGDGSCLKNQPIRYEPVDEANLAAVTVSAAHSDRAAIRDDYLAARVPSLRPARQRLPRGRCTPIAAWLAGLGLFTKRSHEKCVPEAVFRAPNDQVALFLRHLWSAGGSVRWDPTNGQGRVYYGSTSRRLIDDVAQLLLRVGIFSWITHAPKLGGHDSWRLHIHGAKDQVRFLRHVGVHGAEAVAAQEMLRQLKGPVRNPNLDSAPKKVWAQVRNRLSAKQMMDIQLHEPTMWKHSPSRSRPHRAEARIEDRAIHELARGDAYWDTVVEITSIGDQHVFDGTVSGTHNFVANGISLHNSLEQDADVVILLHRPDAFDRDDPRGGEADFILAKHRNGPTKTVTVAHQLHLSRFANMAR

Protein RecA = biological target: T3, Protein RecA (Mycobacterium tuberculosis, UniProt P9WHJ3); test: Fluorescence Cell-Free Homogeneous Dose Retest to Identify Inhibitors of RecA-Intein Splicing Activity. [Related pubchem assays (depositor defined):AID2097, AID2223, AID489010, AID492950]; assay type: functional
T3 sequence (P9WHJ3 whole entry): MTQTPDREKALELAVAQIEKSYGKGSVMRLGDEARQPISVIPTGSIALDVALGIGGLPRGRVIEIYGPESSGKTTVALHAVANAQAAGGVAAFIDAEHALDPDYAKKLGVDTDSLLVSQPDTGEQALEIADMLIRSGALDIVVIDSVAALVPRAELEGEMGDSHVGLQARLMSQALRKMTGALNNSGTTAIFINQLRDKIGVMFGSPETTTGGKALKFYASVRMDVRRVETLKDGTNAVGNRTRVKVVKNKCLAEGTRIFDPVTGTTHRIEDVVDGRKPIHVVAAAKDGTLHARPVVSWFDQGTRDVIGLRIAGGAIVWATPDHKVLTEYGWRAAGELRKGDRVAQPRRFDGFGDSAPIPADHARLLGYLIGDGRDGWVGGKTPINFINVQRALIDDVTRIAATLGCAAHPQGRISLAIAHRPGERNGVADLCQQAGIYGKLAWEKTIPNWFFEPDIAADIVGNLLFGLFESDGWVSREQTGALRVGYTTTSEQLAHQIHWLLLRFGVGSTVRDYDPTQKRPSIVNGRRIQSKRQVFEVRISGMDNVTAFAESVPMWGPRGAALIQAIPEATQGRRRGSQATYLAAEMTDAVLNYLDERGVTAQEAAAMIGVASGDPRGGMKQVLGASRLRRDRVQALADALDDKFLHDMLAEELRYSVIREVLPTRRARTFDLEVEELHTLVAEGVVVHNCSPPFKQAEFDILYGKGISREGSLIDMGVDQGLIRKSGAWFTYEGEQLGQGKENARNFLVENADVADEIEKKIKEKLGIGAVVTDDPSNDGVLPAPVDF

INS1 = test: beta cell apoptosis inhibitors, cytokine rescue, dose response, luminescence, retest (AID 449756); assay type: functional, cell-based; conditions: Rattus norvegicus;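 also: cell death triggered by IL-1 beta plus TNF-alpha plus IFN-gamma mixture; protective hits raise ATP signal compared with cytokine alone wells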
[9] = tested on: Streptococcus sp. 'group A'; test: growth inhibition of control SK(-) GAS strain, dose response, counter-screen for streptokinase expression inhibitor project, luminescence, kanamycin, BacTiterGlo, confirmation (AID 1900); assay type: functional, organism-based
Streptokinase A = biological target: T4, Streptokinase A (Streptococcus pyogenes serotype M1, UniProt P10520); test: S. pyogenes streptokinase expression inhibitors, potency, dose response, plasminogen activation absorbance, OD405 (AID 1914); assay type: functional, Streptococcus pyogenes M1 GAS;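 also: secreted streptokinase activity via plasminogen activation per viability signal from cell pellet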
T4 sequence (P10520 whole entry): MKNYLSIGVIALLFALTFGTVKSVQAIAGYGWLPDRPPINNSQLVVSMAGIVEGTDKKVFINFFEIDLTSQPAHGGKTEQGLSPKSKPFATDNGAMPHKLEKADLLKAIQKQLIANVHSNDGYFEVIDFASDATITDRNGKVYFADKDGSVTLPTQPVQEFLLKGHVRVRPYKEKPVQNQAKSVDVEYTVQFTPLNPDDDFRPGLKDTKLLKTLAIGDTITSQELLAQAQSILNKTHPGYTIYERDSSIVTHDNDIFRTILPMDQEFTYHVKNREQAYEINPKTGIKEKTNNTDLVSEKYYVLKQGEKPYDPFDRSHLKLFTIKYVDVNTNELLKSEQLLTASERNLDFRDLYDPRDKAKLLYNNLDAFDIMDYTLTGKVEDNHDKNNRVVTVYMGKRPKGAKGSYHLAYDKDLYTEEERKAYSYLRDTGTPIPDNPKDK

Streptococcus = test: Group A Streptococcus viability loss, dose response, counter-screen for streptokinase expression inhibitor project, luminescence, BacTiterGlo (AID 1915); assay type: functional, organism-based;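 also: potency for reduction of bacterial viability or growth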

Large T antigen, sequence (P03070 whole entry): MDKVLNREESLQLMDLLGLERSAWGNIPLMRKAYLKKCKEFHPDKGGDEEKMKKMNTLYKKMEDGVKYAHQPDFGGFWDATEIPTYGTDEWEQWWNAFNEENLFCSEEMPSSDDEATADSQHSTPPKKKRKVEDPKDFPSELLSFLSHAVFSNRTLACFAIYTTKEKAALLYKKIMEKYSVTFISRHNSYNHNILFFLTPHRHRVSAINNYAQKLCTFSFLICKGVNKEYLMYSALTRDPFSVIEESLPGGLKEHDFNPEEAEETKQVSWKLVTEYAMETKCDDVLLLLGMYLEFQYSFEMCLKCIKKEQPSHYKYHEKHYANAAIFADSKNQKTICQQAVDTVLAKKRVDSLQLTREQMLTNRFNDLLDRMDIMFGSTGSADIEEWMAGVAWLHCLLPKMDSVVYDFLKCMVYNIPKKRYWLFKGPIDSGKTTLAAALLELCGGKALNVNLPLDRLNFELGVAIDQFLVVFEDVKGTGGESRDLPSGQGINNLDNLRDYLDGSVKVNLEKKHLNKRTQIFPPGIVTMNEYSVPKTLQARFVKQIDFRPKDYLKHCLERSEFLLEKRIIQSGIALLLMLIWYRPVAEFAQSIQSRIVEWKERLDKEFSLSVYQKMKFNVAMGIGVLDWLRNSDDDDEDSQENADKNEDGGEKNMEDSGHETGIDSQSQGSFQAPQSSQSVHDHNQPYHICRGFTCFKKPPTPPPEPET

O=C1ON=C(c2ccccc2)/C1=C\c1ccco1
IC50 (Large T antigen): 28.2 µM (active)

O=Nc1c(O)n(Cc2ccc(Cl)cc2Cl)c2ccccc12
AC50 [1]: 6.86 µM (active)

COc1cccc(/C=C/c2nc(C#N)c(NCC(C)C)o2)c1
AC50 [1]: 2.19 µM (active)

CC(=O)Oc1cc2oc(=O)cc(C)c2cc1OC(C)=O
IC50 (Large T antigen): 21.4 µM (active)

CCCn1c2ccccc2c2nnc(SCC(=O)Nc3c(C)n(C)n(-c4ccccc4)c3=O)nc21
EC50 [2]: > 120 µM (not active) | EC50 [3]: > 120 µM (not active) | EC50 [4]: > 120 µM (not active)

O=C(Nc1ccc(Cl)c(Cl)c1)c1ccc2c(c1)OCO2
CC50 [5]: > 50 µM (active)

O=C1Nc2ccccc2/C1=C\c1cccn1-c1ccc(OC(F)(F)F)cc1
EC50 [2]: 15.7 µM (active) | EC50 [3]: > 120 µM (not active) | EC50 [4]: 15.4 µM (active)

COc1ccc2c(c1)C(=O)Cc1ccccc1O2
IC50 (Large T antigen): 86.7 µM (active)

C=CCn1c(-c2ccccc2)ccc(C#N)c1=O
IC50 (Protein skinhead-1): 15.8 µM (active)

CCC(C)(C)C(=O)Nc1ncc(S(=O)(=O)c2ccc([N+](=O)[O-])cc2)s1
IC50 (Protein skinhead-1): > 100 µM (inactive)

CC(C)(C)c1ccc(/C=C(\c2nc3ccccc3[nH]2)S(=O)(=O)c2ccccc2)cc1
EC50 [6]: 0.995 µM (active) | EC50 [7]: > 60 µM (not active) | AC50 [1]: 1.36 µM (active) | AC50 [8]: 2.19 µM (active) | EC50 (Protein RecA): 2.77 µM (active) | AC50 (INS1): 6.71 µM (active)

CC(C)(C)c1ccc(NC(=O)c2c(F)cccc2Cl)cc1
CC50 [5]: 43.5 µM (active)

CCc1ccccc1N=C(S)N=C(N)Nc1nc(C)c2cc(C)ccc2n1
EC50 [2]: > 120 µM (not active) | EC50 [3]: > 120 µM (not active) | EC50 [4]: 29.4 µM (active)

O=C(NNC(=O)c1ccccc1OCc1ccccc1)c1ccccc1O
EC50 [2]: 3.92 µM (active) | EC50 [3]: 11.6 µM (active) | EC50 [4]: 5.27 µM (active) | AC50 (INS1): 2.76 µM (active)

c1ccc(-c2ccc(-n3ccnc3)cc2)cc1
EC50 [6]: > 30 µM (not active) | EC50 [7]: > 30 µM (not active) | IC50 (Protein skinhead-1): 6.11 µM (active)

COc1ccc(CC(=O)NCc2ccc3c(c2)cc(C)n3C)cc1
IC50 (Protein skinhead-1): > 100 µM (inactive)

CCc1ccc2c(c1)c1nnc(NN)nc1n2C
EC50 [2]: > 120 µM (not active) | EC50 [3]: > 120 µM (not active) | EC50 [4]: > 120 µM (not active)

CCOC(=O)c1c(C)n(C)c2ccc(OCC(O)Cn3nc(C)c(Br)c3C)cc12 (stereo not given)
CC50 [5]: 15.6 µM (active) | EC50 [9]: 15.6 µM (active) | EC50 (Streptokinase A): > 150 µM (not active) | EC50 (Streptococcus): 38.1 µM (active)

Fc1ccc(-c2nnc(Cc3ccc(Cl)cc3)o2)cc1
IC50 (Protein skinhead-1): 20.2 µM (active)

Clc1cc(Cl)c2nc(N3CCCC3)sc2c1
IC50 (Protein skinhead-1): 27.1 µM (active)

O=C(Nc1ccc(C(O)(C(F)(F)F)C(F)(F)F)cc1)c1ccc(Cl)c([N+](=O)[O-])c1
AC50 [1]: 5.95 µM (active)

Clc1ccc(-c2nnc(SCc3ccon3)o2)c(Cl)c1
IC50 (Protein skinhead-1): 60.2 µM (inactive)

CCN(CC)C(=O)c1sc(NC(=O)Cc2ccc(OC)cc2)c(C#N)c1C
IC50 (Protein skinhead-1): > 100 µM (inactive)

CC(=O)n1cc(-c2ccncc2)c2ccccc21
CC50 [5]: 31.5 µM (active)

NC(=O)CC(NC(=O)Cc1cccc2ccccc12)c1ccc(NC2CC3CCC2C3)c([N+](=O)[O-])c1 (stereo not given)
CC50 [5]: > 50 µM (active)

O=C(C[C@H]1C[C@H](C(=O)N2CCOCC2)[C@@]2(CCC3CCCC3)c3[nH]c4cc(-c5ccco5)ccc4c3CCN2C1=O)NCc1ccco1
IC50 (Protein skinhead-1): > 100 µM (inactive)

Oc1ccc(/C=N/Nc2ccc(Cl)nn2)cc1O
IC50 (Large T antigen): 8.16 µM (active)

O=C(NC1CCCC1)C1C(c2ccc(C(F)(F)F)cc2)=Nc2ccccc2N1C(=O)c1ccco1 (stereo not given)
IC50 (Protein skinhead-1): > 100 µM (inactive)

Clc1ccc(-c2nc(CSc3ccccn3)cs2)cc1
IC50 (Protein skinhead-1): 59.1 µM (inactive)

Oc1nc(N/N=C/c2ccccc2Br)nnc1-c1ccccc1
CC50 [5]: 30.9 µM (active)

COc1ccc(O)c(/C=N/Nc2nc(C)cc(-c3ccccc3)n2)c1
CC50 [5]: 18.1 µM (active)

COc1ccccc1-c1cc(C(=O)N/N=C/c2ccc(C)s2)c2ccccc2n1
CC50 [5]: 32.2 µM (active)

CN1CCN(/N=C/c2c[nH]c3ccccc23)CC1
IC50 (Large T antigen): 15.4 µM (active)

O=C1/C(=N/n2cnnc2)c2ccccc2N1Cc1ccccc1
IC50 (Large T antigen): 24.8 µM (active)

COc1cc(/C=N/NC(=O)c2ccoc2C)cc(OC)c1O
IC50 (Large T antigen): 33.9 µM (active)

Cc1nn(-c2ccccc2)c(C)c1/C=N/n1c(S)nnc1-c1ccc(C(C)(C)C)cc1
EC50 [9]: 3.13 µM (active) | EC50 (Streptokinase A): > 150 µM (not active) | EC50 (Streptococcus): 5.35 µM (active) | AC50 [1]: 5.78 µM (active)
